From ChEMBL document CHEMBL5331073, “Discovery of novel 7,7-dimethyl-6,7-dihydro-5H-pyrrolo[3,4-d]pyrimidines as ATR inhibitors based on structure-based drug design” (Eur J Med Chem, 2023)

Columns and labels:
HT-29 [1] = test: Antiproliferative activity against ATM-proficient human HT-29 cells assessed as reduction in cell proliferation at 0.5 to 22 uM incubated for 3 days by MTT assay; assay type: functional, cell-based; conditions: dose 0.5-22 µM, time 3.0 day
[2] = molecular target: T1, Serine/threonine-protein kinase ATR (Homo sapiens, UniProt Q13535); test: Inhibition of ATR (unknown origin) using peptide as substrate preincubated for 10 mins followed by substrate addition by microplate reader analysis
Target sequence in this assay (Q13535 whole entry): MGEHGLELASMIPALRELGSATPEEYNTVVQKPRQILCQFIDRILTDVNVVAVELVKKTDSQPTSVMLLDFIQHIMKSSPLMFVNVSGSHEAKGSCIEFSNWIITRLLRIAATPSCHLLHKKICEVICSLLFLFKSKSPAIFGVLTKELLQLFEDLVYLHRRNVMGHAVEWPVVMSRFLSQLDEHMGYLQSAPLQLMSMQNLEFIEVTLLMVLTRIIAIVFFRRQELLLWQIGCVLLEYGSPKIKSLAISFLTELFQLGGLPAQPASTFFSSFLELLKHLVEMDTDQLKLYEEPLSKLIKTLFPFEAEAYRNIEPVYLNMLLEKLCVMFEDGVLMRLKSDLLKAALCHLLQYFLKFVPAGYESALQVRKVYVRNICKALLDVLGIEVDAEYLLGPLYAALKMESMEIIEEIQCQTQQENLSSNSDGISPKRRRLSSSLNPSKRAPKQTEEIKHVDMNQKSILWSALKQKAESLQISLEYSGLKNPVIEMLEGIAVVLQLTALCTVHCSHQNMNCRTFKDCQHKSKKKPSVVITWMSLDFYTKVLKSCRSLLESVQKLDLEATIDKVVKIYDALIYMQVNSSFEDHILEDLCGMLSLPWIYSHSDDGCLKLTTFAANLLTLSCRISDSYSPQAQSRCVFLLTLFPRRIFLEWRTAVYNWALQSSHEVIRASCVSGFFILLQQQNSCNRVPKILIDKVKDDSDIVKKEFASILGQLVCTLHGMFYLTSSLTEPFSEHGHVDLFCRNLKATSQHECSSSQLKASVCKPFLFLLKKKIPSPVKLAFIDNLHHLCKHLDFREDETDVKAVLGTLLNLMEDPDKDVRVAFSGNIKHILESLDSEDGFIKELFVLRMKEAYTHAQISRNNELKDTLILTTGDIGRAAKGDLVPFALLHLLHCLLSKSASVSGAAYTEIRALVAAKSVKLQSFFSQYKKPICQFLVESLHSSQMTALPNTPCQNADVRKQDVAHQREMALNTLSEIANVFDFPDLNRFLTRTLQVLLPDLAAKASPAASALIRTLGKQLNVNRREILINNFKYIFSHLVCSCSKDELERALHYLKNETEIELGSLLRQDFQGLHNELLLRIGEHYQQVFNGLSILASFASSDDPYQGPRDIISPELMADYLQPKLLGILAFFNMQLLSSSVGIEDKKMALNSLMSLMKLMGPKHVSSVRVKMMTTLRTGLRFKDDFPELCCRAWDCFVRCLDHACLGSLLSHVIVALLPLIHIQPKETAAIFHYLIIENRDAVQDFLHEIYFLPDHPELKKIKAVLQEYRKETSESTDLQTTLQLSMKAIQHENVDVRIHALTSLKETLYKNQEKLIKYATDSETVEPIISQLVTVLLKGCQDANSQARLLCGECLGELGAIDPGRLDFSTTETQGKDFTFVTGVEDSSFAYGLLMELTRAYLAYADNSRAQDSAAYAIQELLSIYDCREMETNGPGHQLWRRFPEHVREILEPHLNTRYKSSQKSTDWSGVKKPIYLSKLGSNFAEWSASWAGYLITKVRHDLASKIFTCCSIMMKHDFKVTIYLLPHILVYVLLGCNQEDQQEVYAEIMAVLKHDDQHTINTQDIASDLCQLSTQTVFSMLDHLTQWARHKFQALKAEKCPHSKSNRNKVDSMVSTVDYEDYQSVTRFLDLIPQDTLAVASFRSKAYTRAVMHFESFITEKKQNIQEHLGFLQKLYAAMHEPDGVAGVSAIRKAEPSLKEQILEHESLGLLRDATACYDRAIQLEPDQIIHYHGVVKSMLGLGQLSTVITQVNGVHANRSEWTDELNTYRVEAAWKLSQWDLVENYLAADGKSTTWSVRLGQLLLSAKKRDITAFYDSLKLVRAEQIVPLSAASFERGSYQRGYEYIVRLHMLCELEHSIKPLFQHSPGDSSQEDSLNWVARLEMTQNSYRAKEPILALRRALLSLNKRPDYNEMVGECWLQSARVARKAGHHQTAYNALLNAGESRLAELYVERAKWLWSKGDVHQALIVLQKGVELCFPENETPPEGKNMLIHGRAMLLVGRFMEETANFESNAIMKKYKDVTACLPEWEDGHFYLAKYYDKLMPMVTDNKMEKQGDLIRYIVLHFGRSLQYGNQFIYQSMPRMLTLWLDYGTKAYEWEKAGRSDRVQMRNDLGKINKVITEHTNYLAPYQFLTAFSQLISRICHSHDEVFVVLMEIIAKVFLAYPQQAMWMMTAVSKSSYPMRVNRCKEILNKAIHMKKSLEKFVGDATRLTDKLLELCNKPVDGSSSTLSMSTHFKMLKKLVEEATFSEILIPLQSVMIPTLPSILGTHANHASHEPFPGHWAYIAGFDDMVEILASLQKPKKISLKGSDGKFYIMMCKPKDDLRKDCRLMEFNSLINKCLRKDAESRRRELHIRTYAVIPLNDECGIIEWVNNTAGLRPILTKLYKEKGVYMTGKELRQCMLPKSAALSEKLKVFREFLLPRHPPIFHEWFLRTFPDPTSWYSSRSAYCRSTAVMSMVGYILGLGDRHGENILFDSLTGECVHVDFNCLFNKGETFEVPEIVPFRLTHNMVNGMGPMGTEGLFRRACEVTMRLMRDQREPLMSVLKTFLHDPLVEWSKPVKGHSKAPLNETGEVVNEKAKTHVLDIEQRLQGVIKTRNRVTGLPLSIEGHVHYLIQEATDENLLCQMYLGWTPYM

LoVo [3] = test: Antiproliferative activity against ATM-deficient human LoVo cells assessed as reduction in cell proliferation at 0.1 to 25 uM incubated for 3 days by MTT assay; assay type: functional, cell-based; conditions: dose 0.1-25 µM, time 3.0 day
LoVo [4] = test: Antiproliferative activity against ATM-deficient human LoVo cells assessed as reduction in cell proliferation incubated for 3 days by MTT assay; assay type: functional, cell-based; conditions: 72 h
in vitro [5] = conditions: human, liver microsomes
in vitro [6] = conditions: human, liver microsomes; remark: listed apart in the source
HT-29 [7] = test: Antiproliferative activity against ATM-proficient human HT-29 cells assessed as reduction in cell proliferation incubated for 3 days by MTT assay; assay type: functional, cell-based; conditions: HT-29, 72 h
in vitro [8] = conditions: rat, liver microsomes
in vitro [9] = conditions: rat, liver microsomes; remark: listed apart in the source
in vitro [10] = conditions: rat, liver microsomes; remark: listed apart in the source
in vitro [11] = conditions: human, liver microsomes; remark: listed apart in the source
[12] = molecular target: T1, Serine/threonine-protein kinase ATR; test: Inhibition of ATR (unknown origin) using peptide as substrate at 0.1 uM preincubated for 10 mins followed by substrate addition by microplate reader analysis
Target sequence in this assay (Q13535 whole entry, looked up): as the sequence (Q13535 whole entry) above

[13] = Tmax in Sprague-Dawley rat at 5 mg/kg, po and measured upto 24 hrs by LC-MS analysis; assay type: ADME, organism-based; conditions: in vivo
[14] = Clearance in Sprague-Dawley rat at 1 mg/kg, iv and measured upto 24 hrs by LC-MS analysis; assay type: ADME, organism-based; conditions: in vivo
[15] = MRT(t) in Sprague-Dawley rat at 1 mg/kg, iv and measured upto 24 hrs by LC-MS analysis; assay type: ADME, organism-based; conditions: in vivo
[16] = AUC (0 to infinity) in Sprague-Dawley rat at 5 mg/kg, po and measured upto 24 hrs by LC-MS analysis; assay type: ADME, organism-based; design: time < 24 hrs, dose 5 mg/kg, route po; conditions: in vivo
[17] = AUCt in Sprague-Dawley rat at 1 mg/kg, iv and measured upto 24 hrs by LC-MS analysis; assay type: ADME, organism-based; design: dose 1 mg/kg, time < 24 hrs, route iv; conditions: in vivo
[18] = Half life in Sprague-Dawley rat at 5 mg/kg, po and measured upto 24 hrs by LC-MS analysis; assay type: ADME, organism-based; conditions: in vivo
[19] = MRT (0 to infinity) in Sprague-Dawley rat at 1 mg/kg, iv and measured upto 24 hrs by LC-MS analysis; assay type: ADME, organism-based; conditions: in vivo
[20] = MRT (0 to infinity) in Sprague-Dawley rat at 5 mg/kg, po and measured upto 24 hrs by LC-MS analysis; assay type: ADME, organism-based; conditions: in vivo
[21] = AUCt in Sprague-Dawley rat at 5 mg/kg, po and measured upto 24 hrs by LC-MS analysis; assay type: ADME, organism-based; design: time < 24 hrs, dose 5 mg/kg, route po; conditions: in vivo
[22] = Oral bioavailability in Sprague-Dawley rat at 5 mg/kg and measured upto 24 hrs by LC-MS analysis; assay type: ADME, organism-based; conditions: in vivo
[23] = Half life in Sprague-Dawley rat at 1 mg/kg, iv and measured upto 24 hrs by LC-MS analysis; assay type: ADME, organism-based; conditions: in vivo
[24] = Cmax in Sprague-Dawley rat at 5 mg/kg, po and measured upto 24 hrs by LC-MS analysis; assay type: ADME, organism-based; design: time < 24 hrs, dose 5 mg/kg, route po; conditions: in vivo
[25] = MRT(t) in Sprague-Dawley rat at 5 mg/kg, po and measured upto 24 hrs by LC-MS analysis; assay type: ADME, organism-based; conditions: in vivo
[26] = AUC(0 to infinity) in Sprague-Dawley rat at 1 mg/kg, iv and measured upto 24 hrs by LC-MS analysis; assay type: ADME, organism-based; design: time < 24 hrs, dose 1 mg/kg, route iv; conditions: in vivo
[27] = Volume of distribution at steady state in Sprague-Dawley rat at 1 mg/kg, iv and measured upto 24 hrs by LC-MS analysis; assay type: ADME, organism-based; conditions: in vivo, read-out: Vdss
[28] = molecular target: Serine/threonine-protein kinase mTOR (Homo sapiens, UniProt P42345); test: Inhibition of mTOR (unknown origin) using peptide as substrate preincubated for 10 mins followed by substrate addition by microplate reader analysis
HCT-116 [29] = test: Antiproliferative activity against ATM-proficient human HCT-116 cells assessed as reduction in cell viability incubated for 3 days in presence of AZD-1390 by MTT assay; assay type: functional, cell-based; conditions: HCT-116, 72 h
HCT-116 [30] = test: Synergistic antiproliferative activity against ATM-proficient human HCT-116 cells assessed as reduction in cell viability incubated for 3 days in presence of oxaliplatin by MTT assay; assay type: functional, cell-based; conditions: HCT-116, 72 h
MCF7 [31] = test: Antiproliferative activity against human MCF7 cells assessed as reduction in cell viability incubated for 3 days by MTT assay; assay type: functional, cell-based; conditions: MCF7, 72 h
HT-29 [32] = test: Antiproliferative activity against ATM-proficient human HT-29 cells assessed as reduction in cell viability incubated for 3 days in presence of AZD-1390 by MTT assay; assay type: functional, cell-based; conditions: HT-29, 72 h
HCT-116 [33] = test: Antiproliferative activity against ATM-proficient human HCT-116 cells assessed as reduction in cell viability incubated for 3 days by MTT assay; assay type: functional, cell-based; conditions: HCT-116, 72 h
A549 [34] = test: Synergistic antiproliferative activity against ATM-proficient human A549 cells assessed as reduction in cell viability incubated for 3 days in presence of oxaliplatin by MTT assay; assay type: functional, cell-based; conditions: A549, 72 h
A549 [35] = test: Synergistic antiproliferative activity against ATM-proficient human A549 cells assessed as reduction in cell viability incubated for 3 days in presence of cisplatin by MTT assay; assay type: functional, cell-based; conditions: A549, 72 h
OVCAR-3 = test: Antiproliferative activity against ATM-deficient human OVCAR-3 cells assessed as reduction in cell viability incubated for 3 days by MTT assay; assay type: functional, cell-based; conditions: OVCAR-3, 72 h
MDA-MB-231 [36] = test: Antiproliferative activity against human MDA-MB-231 cells assessed as reduction in cell viability incubated for 3 days by MTT assay; assay type: functional, cell-based; conditions: MDA-MB-231, 72 h
A549 [37] = test: Antiproliferative activity against ATM-proficient human A549 cells assessed as reduction in cell viability incubated for 3 days by MTT assay; assay type: functional, cell-based; conditions: A549, 72 h
SW-620 = test: Antiproliferative activity against ATM-deficient human SW620 cells assessed as reduction in cell viability incubated for 3 days by MTT assay; assay type: functional, cell-based; conditions: SW-620, 72 h
MCF7 [38] = test: Synergistic antiproliferative activity against human MCF7 cells assessed as reduction in cell viability incubated for 3 days in presence of olaparib by MTT assay; assay type: functional, cell-based; conditions: MCF7, 72 h
HCT-116 [39] = test: Synergistic antiproliferative activity against ATM-proficient human HCT-116 cells assessed as reduction in cell viability incubated for 3 days in presence of cisplatin by MTT assay; assay type: functional, cell-based; conditions: HCT-116, 72 h
MDA-MB-231 [40] = test: Synergistic antiproliferative activity against human MDA-MB-231 cells assessed as reduction in cell viability incubated for 3 days in presence of olaparib by MTT assay; assay type: functional, cell-based; conditions: MDA-MB-231, 72 h
A549 [41] = test: Antiproliferative activity against ATM-proficient human A549 cells assessed as reduction in cell viability incubated for 3 days in presence of AZD-1390 by MTT assay; assay type: functional, cell-based; conditions: A549, 72 h

Row | SMILES | IC50 [2] [nM] | IC50 (LoVo [4]) [nM] | microsomal CLint at 1 h, 1 µM (in vitro [5]) [µL/min/mg] | half-life at 1 h, 1 µM (in vitro [6]) [h] | IC50 (HT-29 [7]) [nM] | microsomal CLint at 1 h, 1 µM (in vitro [8]) [µL/min/mg] | half-life at 1 h, 1 µM (in vitro [9]) [h] | CLint scaled at 1 h, 1 µM (in vitro [10]) [mL/min/kg] | CLint scaled at 1 h, 1 µM (in vitro [11]) [mL/min/kg] | inhibition [12] [%] | Activity (HT-29 [1]) | Activity (LoVo [3]) | further results
1 | CC(=O)c1cccc(C(=O)N2Cc3c(N4CCOC[C@H]4C)nc(-c4cccc5[nH]ccc45)nc3C2(C)C)c1 | 4 | 112 | 339 | 0.0685 | 431 | 121 | 0.192 | 218 | 320 |  | Dose-Dependent Effect | Dose-Dependent Effect | 
2 | C[C@@H]1COCCN1c1nc(-c2cccc3[nH]ccc23)nc2c1CCNC2(C)C |  |  |  |  |  |  |  |  |  | 70.7 |  |  | 
3 | CC(=O)N1CCc2c(N3CCOC[C@H]3C)nc(-c3cccc4[nH]ccc34)nc2C1(C)C | 13 | 1260 | 123 | 0.188 | 4610 | 61.4 | 0.378 | 110 | 116 | 89.9 |  |  | IC50 [28]: 13 nM
4 | C[C@@H]1COCCN1c1cc(C2(S(C)(=O)=O)CC2)nc(-c2cccc3[nH]ccc23)n1 |  | 231 |  |  | 644 |  |  |  |  |  |  |  | IC50 (HCT-116 [29]): 151 nM; IC50 (HCT-116 [30]): 92 nM; IC50 (MCF7 [31]): 2310 nM; IC50 (HT-29 [32]): 72 nM; IC50 (HCT-116 [33]): 260 nM; IC50 (A549 [34]): 333 nM; IC50 (A549 [35]): 481 nM; IC50 (OVCAR-3): 563 nM; IC50 (MDA-MB-231 [36]): 2970 nM; IC50 (A549 [37]): 734 nM; IC50 (SW-620): 727 nM; IC50 (MCF7 [38]): 1220 nM; IC50 (HCT-116 [39]): 137 nM; IC50 (MDA-MB-231 [40]): 254 nM; IC50 (A549 [41]): 495 nM

Second part, led by results:

Row | IC50 [2] [nM] | IC50 (LoVo [4]) [nM] | microsomal CLint at 1 h, 1 µM (in vitro [5]) [µL/min/mg] | half-life at 1 h, 1 µM (in vitro [6]) [h] | IC50 (HT-29 [7]) [nM] | microsomal CLint at 1 h, 1 µM (in vitro [8]) [µL/min/mg] | half-life at 1 h, 1 µM (in vitro [9]) [h] | CLint scaled at 1 h, 1 µM (in vitro [10]) [mL/min/kg] | CLint scaled at 1 h, 1 µM (in vitro [11]) [mL/min/kg] | inhibition [12] [%] | SMILES | Activity (HT-29 [1]) | Activity (LoVo [3]) | further results
5 | 6 | 96 | 281 | 0.0823 | 307 | 28.5 | 0.812 | 51.4 | 265 |  | CC(=O)c1ccc(C(=O)N2Cc3c(N4CCOC[C@H]4C)nc(-c4cccc5[nH]ccc45)nc3C2(C)C)cc1 | Dose-Dependent Effect | Dose-Dependent Effect | 
6 | 4 | 92 | 53.9 | 0.428 | 449 | 7.06 | 3.28 | 12.7 | 50.9 |  | C[C@@H]1COCCN1c1nc(-c2cccc3[nH]ccc23)nc2c1CN(C(=O)c1ccc(S(C)(=O)=O)cc1)C2(C)C | Dose-Dependent Effect | Dose-Dependent Effect | Tmax [13]: 2 h; clearance [14]: 26 mL/min/kg; MRT last at 24 h [15]: 5.21 h; AUC(0-inf) [16]: 203 ng·h/mL; AUC(0-t) at 24 h [17]: 603 ng·h/mL; half-life [18]: 4.38 h; MRT inf [19]: 6.99 h; MRT inf [20]: 7.1 h; AUC(0-t) at 24 h [21]: 185 ng·h/mL; bioavailability [22]: 6.1%; half-life [23]: 5.49 h; Cmax [24]: 24.1 ng/mL; MRT last at 24 h [25]: 5.56 h; AUC(0-inf) [26]: 646 ng·h/mL; Vd [27]: 10.8 L/kg
